# Paper PMC7866972, “Crosstalk of Cancer Signaling Pathways by Cyclic Hexapeptides and Anthraquinones from Rubia cordifolia” (Molecules, 2021)
# “Also recorded” adds a separate entry of the source. Like-named read-outs stand apart in the source and are kept apart here.
# How the values were obtained:
# Format in all cases: cell-based
# Stat3 = Stat3 luciferase reporter assay (IL-6 induced); settings: Homo sapiens; for activity at 1 µg/mL: Hela cells, 4 h, read-out: percentage of luciferase induction Stat3/IL-6
# Experimental: (§1) Hela cells from ATCC were plated in white opaque 384 well plates at a density of 4300 cells/well in 30 µL of a growth medium (DMEM with 10% FBS and 1% Pen/step). The next day, the medium was aspirated and replaced with DMEM containing 10% FBS. The cells were transfected with respective plasmids using the X-tremeGENE HP transfection reagent (Roche). Luciferase vectors used in this assay are summarized in Table S2, Supporting Information. After 24 h of transfection, the test agents were added to the transfected cells, followed 30 min later by an inducing agent (IL-6 for Stat 3, TGF-beta for Smad, m-wnt3a for Wnt and PMA for AP-1, NF-kB, E2F, Myc, ETS, Notch and Hedgehog). No inducer was added for FoXO, miR-21, and […]. After 4 h or 6 h of induction, the cells were lysed by the addition of the One-Glo luciferase assay system (Promega, Madison, WI, USA). The light output was detected in a Glomax Multi+ detection system with the Instinct Software (Promega, Madison, WI, USA). This luciferase assay determines if the test agent was able to inhibit the activation of cancer-related signaling pathways. In the case of FoxO and mi-R21, the enhanced luciferase activity by the test agent was assessed.
# Smad = Smad luciferase reporter assay (TGF-beta induced); settings: for percentage of luciferase induction Smad/TGF-b: Hela cells, 1µg/ml, 4 h
# Experimental: as §1
# Ap-1 = assay: AP-1 luciferase reporter assay (PMA induced); settings: for activity at 1 µg/mL: Hela cells, 4 h, read-out: percentage of luciferase induction Ap-1/PMA
# Experimental: as §1
# NF-κB = NF-κB luciferase reporter assay (PMA induced); settings: Homo sapiens; for activity at 1 µg/mL: Hela cells, 4 h, read-out: percentage of luciferase induction NF-kB/PMA
# Experimental: as §1
# E2F = E2F luciferase reporter assay (PMA induced); settings: Homo sapiens; for activity at 1 µg/mL: Hela cells, 4 h, read-out: percentage of luciferase induction E2F/PMA
# Experimental: as §1
# Myc = Myc luciferase reporter assay (PMA induced); settings: Homo sapiens; for activity at 1 µg/mL: Hela cells, 4 h, read-out: percentage of luciferase induction Myc/PMA
# Experimental: as §1
# Ets = Ets luciferase reporter assay (PMA induced); settings: Homo sapiens; for activity at 1 µg/mL: Hela cells, 4 h, read-out: percentage of luciferase induction Ets/PMA
# Experimental: as §1
# Notch = Notch luciferase reporter assay (PMA induced); settings: Homo sapiens; for activity at 1 µg/mL: Hela cells, 6 h, read-out: percentage of luciferase induction Notch/PMA
# Experimental: as §1
# FoxO = FoxO luciferase reporter assay (no inducer); settings: for percentage of luciferase induction FoxO: Hela cells, 1µg/ml, 6 h
# Experimental: as §1
# Wnt = Wnt luciferase reporter assay (m-wnt3a induced); settings: Homo sapiens; for activity at 1 µg/mL: Hela cells, 6 h, read-out: percentage of luciferase induction Wnt/m-wnt 3a
# Experimental: as §1
# Hedgehog = Hedgehog luciferase reporter assay (PMA induced); settings: Homo sapiens; for activity at 1 µg/mL: Hela cells, 6 h, read-out: percentage of luciferase induction Hdghog/PMA
# Experimental: as §1
# miR-21 = miR-21 luciferase reporter assay (no inducer); settings: Hela cells, 1µg/ml, 6 h
# Experimental: as §1
# pTK control vector = pTK control vector luciferase assay (minimal thymidine kinase promoter); settings: no inducer; for percentage of luciferase induction pTK: Hela cells, 1µg/ml
# Experimental: as §1
# MDA-MB 231 cells = assay: Cytotoxicity assay (WST-8) of SGF/SIF treated and untreated peptide; settings: 48 h, SGF pH 1.2 60 min or SIF pH 7.5 with pancreatin 8 h, 37 °C, unpaired t-test
# Experimental: (§2) T98G and MDA-MB 231 cells from ATCC, were plated in clear 384-well plates at an initial density of 1700 cells/well for T98G cells and 2500 cells/well of MDA-MB 231 cells in 40 µL of a growth medium (DMEM with 10% FBS and 1% Pen/step). The next day, the test agents were added at the specified concentration, the treatment continued for 48 h, and the cell viability was finally assessed using the WST-8 assay Cell Counting Kit from Bimake, according to the manufacturer’s instructions. The results were measured by absorbance at 450 nm using the SpectraMax M5 plate reader (Molecular Devices). The cell viability was calculated in comparison to the DMSO control.
# (§3) The simulated gastric fluid was prepared as described in the United States Pharmacopoeia (USP, 1995) and consists of 0.2% w/v of NaCl and 0.7% v/v of hydrochloric acid at pH 1.2. Aliquots (48 µL) of SGF were placed in 1.5-mL microcentrifuge tubes and incubated in a water bath at 37 °C [35]. In addition, 2 µL of compound 6 (10 mg/mL in DMSO) was added to each of the SGF vials to start the digestion reaction. The incubation was continued for 60 min and the digestion was stopped with 150 µL of ice-cold cell culture media. The digested samples were used for the cytotoxicity and luciferase assays at different concentrations and the activities were compared between the untreated and SGF treated peptide samples. […]
# T98G cells = assay: as above; settings: 48 h, SGF pH 1.2 60 min or SIF pH 7.5 with pancreatin 8 h, 37 °C, unpaired t-test
# Experimental: as §2, §3
# [1] = system: cancer-related signaling pathways in HeLa cells; assay: Panel of luciferase reporter genes for cancer-related signaling pathways
# Experimental: as §1
# The simulated gastric fluid was prepared as described in the United States Pharmacopoeia (USP, 1995) and consists of 0.2% w/v of NaCl and 0.7% v/v of hydrochloric acid at pH 1.2. Aliquots (48 µL) of SGF were placed in 1.5-mL microcentrifuge tubes and incubated in a water bath at 37 °C [35]. In addition, 2 µL of compound 6 (10 mg/mL in DMSO) was added to each of the SGF vials to start the digestion reaction. The incubation was continued for 60 min and the digestion was stopped with 150 µL of ice-cold cell culture media. The digested samples were used for the cytotoxicity and luciferase assays at different concentrations and the activities were compared between the untreated and SGF treated peptide samples.
# [2] = SGF treated compound (pH 1.2, 37 °C, 60 min)
# [3] = HeLa cells, agent added 30 min before PMA, harvested 4 h later, ND = No activity detected
smiles,measurement,setting,value
"COc1ccc(C[C@H]2C(=O)N[C@@H](C)C(=O)N(C)[C@H]3Cc4ccc(cc4)Oc4cc(ccc4O)C[C@@H](C(=O)N[C@H](C)C(=O)N[C@@H](C)C(=O)N2C)N(C)C3=O)cc1 [Compound 6, deoxybouvardin]",IC50,"Stat3; HeLa cells, agent added 30 min before IL-6, harvested 4 h later, ND = No activity detected",0.18 µg/mL
same,activity at 1 µg/mL,Stat3; [2],-4%
same,activity at 1 µg/mL,Stat3; untreated compound,-4%
same,percentage of luciferase induction Smad/TGF-b,Smad; [2],41%
same,percentage of luciferase induction Smad/TGF-b,Smad; untreated compound,33%
same,IC50,"Smad; Homo sapiens, HeLa cells, agent added 30 min before TGF-beta, harvested 4 h later, ND = No activity detected",0.3 µg/mL
same,IC50,Ap-1; [3],0.22 µg/mL
same,activity at 1 µg/mL,Ap-1; [2],43%
same,activity at 1 µg/mL,Ap-1; untreated compound,48%
same,IC50,NF-κB; [3],0.17 µg/mL
same,activity at 1 µg/mL,NF-κB; [2],34%
same,activity at 1 µg/mL,NF-κB; untreated compound,33%
same,IC50,E2F; [3],0.36 µg/mL
same,activity at 1 µg/mL,E2F; [2],8%
same,activity at 1 µg/mL,E2F; untreated compound,82%
same,IC50,Myc; [3],0.075 µg/mL
same,activity at 1 µg/mL,Myc; [2],20%
same,activity at 1 µg/mL,Myc; untreated compound,-8%
same,IC50,Ets; [3],0.18 µg/mL
same,activity at 1 µg/mL,Ets; [2],58%
same,activity at 1 µg/mL,Ets; untreated compound,60%
same,IC50,"Notch; HeLa cells, agent added 30 min before PMA, harvested 6 h later, ND = No activity detected",0.093 µg/mL
same,activity at 1 µg/mL,Notch; [2],56%
same,activity at 1 µg/mL,Notch; untreated compound,65%
same,percentage of luciferase induction FoxO,FoxO; [2],68%
same,percentage of luciferase induction FoxO,FoxO; untreated compound,51%
same,IC50,"FoxO; Homo sapiens, HeLa cells, harvested 6 h later, ND = No activity detected",0.1 µg/mL
same,IC50,"Wnt; HeLa cells, agent added 30 min before m-wnt 3a, harvested 6 h later, ND = No activity detected",0.05 µg/mL
same,activity at 1 µg/mL,Wnt; [2],12%
same,activity at 1 µg/mL,Wnt; untreated compound,6%
same,IC50,"Hedgehog; HeLa cells, agent added 30 min before PMA, harvested 6 h later, ND = No activity detected, read-out: IC50 Hdghog/PMA",0.2 µg/mL
same,activity at 1 µg/mL,Hedgehog; [2],5%
same,activity at 1 µg/mL,Hedgehog; untreated compound,1%
same,percentage of luciferase induction miR21,miR-21; [2],150%
same,percentage of luciferase induction miR21,miR-21; untreated compound,183%
same,percentage of luciferase induction pTK,pTK control vector; [2],48%
same,percentage of luciferase induction pTK,pTK control vector; untreated compound,50%
same,IC50,"pTK control vector; Homo sapiens, HeLa cells, ND = No activity detected",0.9 µg/mL
same,activity (cell viability) of SGF or SIF treated compared to untreated compound,MDA-MB 231 cells,remained the same before and after the treatment; also recorded: non-significant
same,activity (cell viability) of SGF or SIF treated compared to untreated compound,T98G cells,remained the same before and after the treatment; also recorded: non-significant
same,activity of SGF treated peptide across the panel of cancer signaling pathways compared to untreated peptide,"[1]; Hela cells, SGF treated, Table S1",comparable to the untreated peptide
same,IC50,"[1]; Homo sapiens, HeLa cells, summary statement on Table 1, read-out: IC50 values for several pathways across the panel",< 0.5 µg/mL
